Data reported in patent US11519922B2, “Methods for identifying risk of chemotherapy-induced cardiotoxicity and targeted medical intervention” (Detroit R&D, Inc., priority 2018, dated 2022).

Tests used:
sEH enzyme in H9c2 cells = molecular target: T1, sEH enzyme in H9c2 cells (Rattus norvegicus, UniProt P80299); test: 14,15-DHET formation from added 14,15-EET by H9c2 cells; assay type: cell-based
T1 construct: host or cells: H9c2 rat cardiomyocytes
T1 sequence (P80299 1-554): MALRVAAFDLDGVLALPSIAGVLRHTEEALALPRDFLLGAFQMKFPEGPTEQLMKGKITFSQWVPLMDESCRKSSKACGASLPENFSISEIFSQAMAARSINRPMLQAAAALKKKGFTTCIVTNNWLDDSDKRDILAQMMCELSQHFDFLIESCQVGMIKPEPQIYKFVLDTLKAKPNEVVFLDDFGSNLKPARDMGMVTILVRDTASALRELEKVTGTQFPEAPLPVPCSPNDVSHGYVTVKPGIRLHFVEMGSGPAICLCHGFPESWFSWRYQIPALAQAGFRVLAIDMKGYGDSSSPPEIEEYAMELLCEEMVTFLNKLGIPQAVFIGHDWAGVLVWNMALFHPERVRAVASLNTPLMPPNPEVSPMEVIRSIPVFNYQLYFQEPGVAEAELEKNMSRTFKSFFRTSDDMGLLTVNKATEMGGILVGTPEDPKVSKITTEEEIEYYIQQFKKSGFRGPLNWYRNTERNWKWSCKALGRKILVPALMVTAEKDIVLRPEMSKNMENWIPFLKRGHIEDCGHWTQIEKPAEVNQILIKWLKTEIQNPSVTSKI
Protocol: Expression of sEH enzyme in the cells was confirmed by detection of increased 14,15-DHET formation activity after 1 μM EET (substrate) treatment.
sEH enzyme converts 14,15-EET to 14,15-DHET, so differential levels of 14,15-DHET will reflect sEH activity. After addition of 1 μM 14,15-EET to H9c2 cells, ˜250 ng/ml 14,15-DHET was formed in cell media in 30 min and 4.5-fold higher level of 14,15-DHET was formed when the EET level was increased from 1 μM to 5 μM, verifying EET-dose-dependent 14,15-DHET formation by rat H9c2 cardiomyocyte cells.

recombinant sEH = molecular target: T2, recombinant sEH (Homo sapiens, UniProt P34913); test: Inhibition of EET-dependent sEH activity, reconstituted system; assay type: biochemical
T2 sequence (P34913 1-555): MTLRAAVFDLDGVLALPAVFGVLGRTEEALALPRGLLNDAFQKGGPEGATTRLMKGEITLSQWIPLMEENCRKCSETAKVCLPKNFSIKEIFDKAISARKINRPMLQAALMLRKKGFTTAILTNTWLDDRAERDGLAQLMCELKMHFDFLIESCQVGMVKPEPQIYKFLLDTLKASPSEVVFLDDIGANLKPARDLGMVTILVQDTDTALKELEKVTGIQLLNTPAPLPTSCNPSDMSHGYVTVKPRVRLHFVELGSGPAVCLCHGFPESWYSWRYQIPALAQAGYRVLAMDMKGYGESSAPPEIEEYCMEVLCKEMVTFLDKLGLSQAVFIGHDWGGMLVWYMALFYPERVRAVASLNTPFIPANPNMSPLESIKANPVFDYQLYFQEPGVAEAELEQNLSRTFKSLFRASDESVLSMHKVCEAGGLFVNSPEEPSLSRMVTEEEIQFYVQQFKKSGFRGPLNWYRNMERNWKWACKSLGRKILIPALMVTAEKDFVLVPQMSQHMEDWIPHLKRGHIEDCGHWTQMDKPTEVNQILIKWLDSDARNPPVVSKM

[1] = molecular target: T3, sEH in human kidney cells (ACHN) (Homo sapiens, UniProt P34913); test: Inhibition of EET-dependent sEH activity in kidney cells; assay type: cell-based; conditions: EET 1 μM
T3 construct: recombinant sEH and human kidney cells (ACHN); endogenous in cells; host or cells: ACHN human kidney cells
T3 sequence (P34913 1-555): T2 sequence (P34913 1-555)

14,15-DHET formed in cell media (sEH enzyme in H9c2 cells; 1 μM 14,15-EET, 30 min) [ng/mL]	higher level of 14,15-DHET formed (sEH enzyme in H9c2 cells; EET level increased from 1 μM to 5 μM) [fold]	EET-dependent sEH activity (recombinant sEH; EET 1 μM, reconstituted system with recombinant sEH)	inhibitor of the sEH activity (overall statement) (recombinant sEH; recombinant sEH and ACHN cells)	EET-dependent sEH activity [1]	Structure (SMILES)
~250	4.5				CCCCCC1OC1C/C=C\C/C=C\C/C=C\CCCC(=O)O (centres unmarked) [14,15-EET]
		inhibited	potent inhibitors	inhibited	C=CCc1ccc(O)c(-c2ccc(O)c(CC=C)c2)c1 [Honokiol]
